Measurements published in US10196363B2, “Dihydropyrimidin-2-one compounds and medical use thereof” (JAPAN TOBACCO INC., priority 2014, dated 2019).
Like-named read-outs stand apart in the source and are kept apart here.

Experiments:
mouse RORγ = biological target: T1, mouse RORγ (Mus musculus, UniProt P51450); experiment: In vitro assay of inhibitory effect against RORγ transcriptional activity (GAL4-mRORγ LBD luciferase reporter gene assay in CHO cells); format: cell-based; settings: for mRORγ luciferase activity, %-of-control: vehicle-control 0.2% DMSO alone = 100%
T1 construct: mouse RORγ, from Ile251 to Lys516; expressed in transfected cells; host or cells: CHO cells (Chinese hamster ovary), transient co-transfection with pG5-Luc
T1 sequence (P51450 251-516): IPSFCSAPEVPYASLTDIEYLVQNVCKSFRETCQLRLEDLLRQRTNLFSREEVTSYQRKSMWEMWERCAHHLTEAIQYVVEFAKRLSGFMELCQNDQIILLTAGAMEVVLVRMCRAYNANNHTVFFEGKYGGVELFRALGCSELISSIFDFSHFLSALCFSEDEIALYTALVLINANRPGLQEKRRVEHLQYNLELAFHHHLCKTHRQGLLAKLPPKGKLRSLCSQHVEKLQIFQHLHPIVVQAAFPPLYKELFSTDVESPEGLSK
Outline: (§1)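 Luciferase signal, expressed relative to 0.2% DMSO vehicle as 100%, was the read-out after a 2-day compound exposure of CHO cells co-expressing a GAL4-RORγ LBD fusion and a GAL4-responsive reporter. EC50 values came from curve fitting, omitting points showing cytotoxicity.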

human RORγ = biological target: T2, human RORγ (Homo sapiens, UniProt P51449); experiment: In vitro assay of inhibitory effect against RORγ transcriptional activity (GAL4-hRORγ LBD luciferase reporter gene assay in CHO cells); format: cell-based; settings: for hRORγ luciferase activity, %-of-control: vehicle-control 0.2% DMSO alone = 100%
T2 construct: human RORγ, from Ser253 to Lys518; expressed in transfected cells; host or cells: CHO cells (Chinese hamster ovary), transient co-transfection with pG5-Luc
T2 sequence (P51449 253-518): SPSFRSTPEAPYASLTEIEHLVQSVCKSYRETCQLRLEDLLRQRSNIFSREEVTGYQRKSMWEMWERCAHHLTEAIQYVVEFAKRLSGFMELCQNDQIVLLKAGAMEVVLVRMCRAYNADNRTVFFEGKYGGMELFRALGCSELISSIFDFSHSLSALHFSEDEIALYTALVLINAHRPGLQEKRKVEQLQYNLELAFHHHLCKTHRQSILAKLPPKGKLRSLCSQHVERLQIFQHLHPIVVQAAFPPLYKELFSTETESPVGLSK
Outline: as §1

[1] = GAL4-mRORγ LBD luciferase reporter, CHO cells, read-out: LUC EC50 mRORγ
[2] = GAL4-hRORγ LBD luciferase reporter, CHO cells, read-out: LUC EC50 hRORγ
[3] = GAL4-mRORγ LBD / pG5-Luc in CHO cells, 2 days incubation
[4] = GAL4-hRORγ LBD / pG5-Luc in CHO cells, 2 days incubation
[5] = value in parentheses beside the > EC50 bound
[6] = value in parentheses beside the EC50 bound

SMILES	EC50 (mouse RORγ; [1])	EC50 (human RORγ; [2])	EC50 (mouse RORγ; [3])	EC50 (human RORγ; [4])	further results
CC(C)C1=CN(C23CCC(C(=O)O)(C2)C3)C(=O)N[C@@]1(C)c1ccc(CCC(C)(C)C)c(C(F)(F)F)c1 [Example 314]	32 nM	38 nM			
CC(C)(C)CCc1ccc([C@]2(C)NC(=O)N(CCCC(=O)O)C=C2C2CC2)cc1Cl [Example 57]			22 nM	31 nM	
CC(C)(C)CCc1ccc([C@@]2(C)NC(=O)N(CCCC(=O)O)C=C2C2CCCCC2)cc1Cl [Example 31]			> 3200 nM	3070 nM	mRORγ luciferase activity, %-of-control (mouse RORγ; [5]): (52%)
CC(C)C1=CN(CCCC(=O)O)C(=O)N[C@]1(C)c1ccc(CCC(C)(C)C)c(Cl)c1 [Example 14]			> 8000 nM	> 8000 nM	mRORγ luciferase activity, %-of-control (mouse RORγ; [5]): (59%); hRORγ luciferase activity, %-of-control (human RORγ; [5]): (69%)
COc1cc(C(=O)O)ccc1N1C=C(C(C)C)[C@](C)(c2ccc(CCC(C)(C)C)c(Cl)c2)NC1=O [Example 221]	24 nM	25 nM			
CC(C)(C)CCc1ccc([C@]2(C)NC(=O)N(c3ccncc3)C=C2CCC(=O)O)cc1Cl [Example 231]	458 nM	692 nM			
CC(C)C1=CN(CCC(=O)O)C(=O)N[C@]1(C)c1ccc(C2CCC(C)(C)CC2)c(Cl)c1 [Example 117]			> 8000 nM	> 3200 nM	mRORγ luciferase activity, %-of-control (mouse RORγ; [5]): (76%); hRORγ luciferase activity, %-of-control (human RORγ; [5]): (106%)
COCCN1C=C(C(C)(C)CCC(=O)O)C(C)(c2ccc(CCC(C)(C)C)c(Cl)c2)NC1=O (single isomer, unassigned) [Example 160]			40 nM	15 nM	
COC1CC(C2=CN(c3ccc(C(=O)O)cc3)C(=O)N[C@@]2(C)c2ccc(CCC(C)(C)C)c(Cl)c2)C1 (single isomer, unassigned) [Example 277]	38 nM	23 nM			
CC(C)C1=CN(CCC(=O)O)C(=O)N[C@@]1(C)c1ccc(C=C2CCC(C)(C)CC2)c(Cl)c1 [Example 285]	30 nM	1350 nM			
CC(C)(C)CCc1ccc([C@@]2(C)NC(=O)N([C@H]3C[C@H](C(=O)O)C3)C=C2C2CCOCC2)cc1Cl [Example 99]			2890 nM	1510 nM	
C=C(C)C1=CN(CCC(=O)O)C(=O)N[C@@]1(C)c1ccc(CCC(C)(C)C)c(Cl)c1 [Example 292]	73 nM	89 nM			
CC(C)C1=CN(C23CCC(C(=O)O)(C2)C3)C(=O)N[C@@]1(C)c1ccc(CCC(C)(C)C)c(Cl)c1 [Example 272]	36 nM	17 nM			
COC1CC(C2=CN(c3ccc(C(=O)O)cc3)C(=O)N[C@@]2(C)c2ccc(CCC(C)(C)C)c(Cl)c2)C1 (single isomer, unassigned) [Example 276]	47 nM	28 nM			
CC(C)CCOc1ccc([C@]2(C)NC(=O)N(CCC(=O)O)C=C2C(C)C)cc1Cl [Example 150]			12 nM	21 nM	
CC(C)C1=CN([C@H]2C[C@@H](C(=O)O)C2)C(=O)NC1(C)c1ccc(OCC(C)(C)C)c(Cl)c1 (mixture of isomers) [Example 16]			137 nM	362 nM	
CC(C)C1=CN(c2ccc(C(=O)O)cc2)C(=O)N[C@@]1(C)c1ccc(CCC(C)(C)C)c(Cl)c1 [Example 159, 4-{(S)-4-[3-chloro-4-(3,3-dimethyl-butyl)-phenyl]-5-isopropyl-4-methyl-2-oxo-3,4-dihydro-2H-pyrimidin-1-yl}-benzoic Acid]			23 nM	21 nM	
CC(C)C1=CN(CCC(=O)O)C(=O)N[C@@]1(C)c1cc(F)c(OCCC(C)(C)C)c(Cl)c1 [Example 165]			17 nM	27 nM	
COCCC1=CN(c2ccc(C(=O)O)cc2)C(=O)N[C@@]1(C)c1ccc(CCC(C)(C)C)c(C(F)(F)F)c1 [Example 323]	23 nM	51 nM			
CC(C)C1=CN(CCCCC(=O)O)C(=O)NC1(C)c1ccc(OCC(C)(C)C)c(Cl)c1 (racemic) [Example 18]			28 nM	51 nM	
CC(C)C[S+]([O-])c1ccc([C@]2(C)NC(=O)N(CCC(=O)O)C=C2C(C)C)cc1Cl (mixture of isomers) [Example 215]	> 20000 nM	> 20000 nM			mRORγ luciferase activity, %-of-control (mouse RORγ; [6]): (70%); hRORγ luciferase activity, %-of-control (human RORγ; [6]): (77%)
COCC(C)C1=CN(CCC(=O)O)C(=O)N[C@@]1(C)c1ccc(CCC(C)(C)C)c(Cl)c1 (single isomer, unassigned) [Example 306]	27 nM	63 nM			
CC(C)C1=CN(c2ccc(F)c(C(=O)O)c2)C(=O)N[C@@]1(C)c1ccc(CCC(C)(C)C)c(Cl)c1 [Example 208]	40 nM	21 nM			
CC(C)(C)CCc1ccc([C@]2(C)NC(=O)N([C@H]3C[C@H](C(=O)O)C3)C=C2[C@H]2C[C@@H](CO)C2)cc1Cl [Example 205]	427 nM	281 nM			
